Experimental data taken from patent US20070071773A1, “Compositions and methods for the treatment and prophylaxis of infections caused by gram positive bacteria” (priority 2002, published 2007).
Entries after “also recorded” stand apart in the source; their conditions may differ.

Experiments:
[1] = tested on: trypsin-like GAS protease; assay: Degradation of IL-8 by JS95 supernatant (Western blot, ELISA); format: biochemical, Group A Streptococcus (GAS); conditions: supernatant of JS95 grown without SilCR, 50 μg/ml SilCR added to the assay; FIG. 14
Protocol: […] was grown in the absence and presence of SilCR (50 μg/ml). IL-8 was incubated with the indicated supernatant fractions and then subjected to 18% SDS-PAGE. The separated protein bands were electro-transferred to a nitrocellulose membrane. Anti-IL-8 antibody and a secondary antibody conjugated to horseradish peroxidase were used to detect IL-8. The number of the lane represents incubation of IL-8 with: 1, DMEM+FCS (control); 2, JS95 supernatant; 3, JS95 supernatant grown in the presence of SilCR; 4, JS95 supernatant, pretreated with pefabloc SC; 5, supernatant of JS95 grown in the absence of SilCR, then 50 μg/ml of SilCR was added to the degradation assay.
15A The column numbers represent the ELISA results after incubation of IL-8 with: 1, DMEM+FCS (control); and the supernatants of: 2, JS95; 3, JS95 grown in the presence of SilCR; 4, JS95 pretreated with aprotenin; 5, JS95 pretreated with soybean trypsin inhibitor; 6, JS95 pretreated with benzamidine. The background of the ELISA assay (0.08±0.004) was subtracted from the shown results. The data represent the mean ± SD, of three separate experiments.
A. Cell culture of JS95 strain was grown in THY to an OD600 of 0.2. To determine the effect of SilCR on chemokine proteolysis, the culture was split into two equal fractions, of which one received SilCR (25 μg/ml). Both fractions were further incubated until they reached an OD600 of 0.3. Bacteria were washed twice with sterile PBS and once with DMEM containing 10% FCS. The washed pellets were re-suspended in DMEM supplemented with FCS to their original volumes. SilCR (50 μg/ml) was added to the fraction that was grown in the presence of SilCR, and the two fractions were further incubated for 1 h at 37° C. Supernatants were collected after centrifugation. The proteolysis reaction contained: 0.08 ml of each supernatant, 100 ng of recombinant human IL-8/CXCL8 (R&D systems, Minneapolis, Minn.) or 30 ng of recombinant murine MIP-2 (R& D systems, Minneapolis, Minn.), 20 mM MOPS pH=7.2 in a final volume of 0.1 ml. The reaction was conducted for 1 h at 37° C., and stopped by boiling for 1 min.
B. For testing protease inhibitors, the supernatants were pre-incubated with the inhibitor for 30 min at 37° C., followed by the proteolysis reaction. The following concentrations of inhibitors were used: 4 mM pefabloc SC; 0.5 mM PMSF; 0.3 μM aprotinin; 1 mM benzamidine; 100 μg/ml soybean trypsin inhibitor (STI).
C. Proteolysis of chemokines was determined by ELISA and Dot-blot. IL-8 content was quantified by ELISA using the Quantikine kit for determination of human IL-8 (R&D Systems, Minneapolis, Minn.) according to the manufacturer's instructions.

[2] = Neutrophil influx in mice after injection of the peptide alone; format: in vivo; conditions: without bacteria
Description: This is in a sharp contrast to the paucity of neutrophil influx in mice challenged with JS95 alone (FIG. 11B). Thus, a rapid recruitment of neutrophils appears necessary to confine GAS infection, subsequently preventing a systemic GAS dissemination.

GAS strain JS95 = assay: Bacterial growth inhibition (disks on blood-agar plate; THY medium); format: cell-based, Group A Streptococcus (GAS)
Protocol: One thousands to 1500 CFU of GAS strain JS95 were spread on the surface of a blood-agar plate, incubated at room temperature and disks with different concentrations of antibiotic (control) or peptide (25, 50 and 200 μg) were placed on the surface. The plates were incubated at 37° C. for 16 hours. Areas with no hemolysis (N. hemo.) indicate inhibition of GAS growth by antibiotics. Area with hemolysis (hemo.) indicates GAS growth in the presence of 200 μg of the peptide.
The inventors next examined whether the 17 amino acid peptide of the invention protects mice challenged with highly virulent strains by inhibition of bacterial growth. Different concentrations (1000-1500 CFU) of GAS strain JS95 were spread on the surface of a blood-agar plate and incubated at room temperature. Disks loaded with different concentrations of antibiotics (control) or peptide (25, 50 and 200 μg) were placed on the surface. […] 178:6087-6090 (1996); Havarstein, et al. J. Bacteriol. 179:6586-6584 (1997)] it is plausible that the peptide acts on a TCS. This in turn activates a signal transduction process in the bacteria leading to attenuation of virulence.

[3] = tested on: serotype M14, M1 and M3 strains; assay: Neutrophil recruitment in mice challenged with different GAS serotypes; format: in vivo, Group A Streptococcus (GAS)
Description: The absence (M1 and M3) or mutation (M14) of the gene encoding the SilCR pheromone in those GAS strains may eliminate a counter-regulatory mean to a GAS chemokine proteolysis, resulting in an increased virulence potential for invasive soft tissue infections.

GAS M1 strain 340 = assay: Murine NF model: lesions after challenge with M1 strain 340; format: in vivo, Group A Streptococcus (GAS); conditions: co-injection of SilCR (50 μg, 90% purified) with 10^8 CFU M1 strain 340; FIG. 16C
Protocol: 16C. mice infected with 10^8 CFU of M1 strain 340+SilCR (50 μg 90% purified) 48 h after inoculation.
The ability of GAS to cause lethal infection in ten-gram BALB/c female mice (Harlan Laboratories, Jerusalem, Israel) was assessed as described before [Ravins, M. et al. J. Infect. Dis. 182:1702-11 (2000)]. Briefly, 10^8 CFU of log-phase bacteria were washed twice in PBS, resuspended in 0.1 ml PBS and injected subcutaneously into the back of a mouse. The number of CFU injected was verified for each experiment by plating bacteria on THY-blood agar plates and counting. Each group contained 8 to 10 mice that were observed daily for death and changes in the lesions' properties such as size and depth, or were sacrificed at different times after inoculation for histopathological assessment. To determine the presence of bacteria in skin and spleen, mice were sacrificed; a wide area surrounding the skin lesions was excised, spleens were removed, and organs were homogenized in 10 or 1 ml of sterile PBS, respectively. Aliquots were plated and streptococcal colonies were counted. The Institutional Ethics Committee for animal care approved all animal procedures (approval number MD 79.17-4).
GAS of M1 and M3 serotypes are commonly associated with invasive disease and NF, and each lack the SilCR gene in their locus. […]

## DIFKLVIDHISMKARKK (SilCR peptide) [17 amino acid synthetic peptide, predicted mature form of the pheromone peptide encoded by the SilCR ORF; used at 70% or 90% purity]
[1]
  IL-8 proteolysis with purified peptide added to the degradation assay: did not itself block IL-8 proteolysis
[2]
  neutrophil influx: did not stimulate neutrophil recruitment; also recorded: did not induce neutrophil influx
GAS strain JS95; THY medium and blood agar plates
  inhibition of GAS growth: does not inhibit GAS growth
GAS strain JS95; disks with peptide up to 200 μg on blood-agar plate, 1000-1500 CFU JS95, 37° C. 16 hours, FIG. 10
  bacterial growth around disk: bacterial growth was observed
[3]
  neutrophil recruitment: improved neutrophil recruitment
GAS M1 strain 340
  lesion size and duration: significantly reduced size and duration
